For one test, the target named is T1, human GSK3α (Homo sapiens, UniProt P49840).
T1 construct: Full length human GSK3α or GSK3B expressed as N-terminal GST fusion proteins; GST (N); purchased Carna Biosciences (Japan); host or cells: baculovirus host
Briefly: In vitro enzymatic activity assay, GSK3α. In kind it is biochemical. Conditions: 1.0 mM ATP, 1.0 μM peptide substrate, 120 min, 25° C, read-out: Enzyme GSK3α (IC50).

For test [1], the target named is T2, GSK3B (Homo sapiens, UniProt P49841). The experiment in a line: NanoBRET cellular target engagement assay, Nanoluc-GSK3B in HEK293 cells. In kind it is cell-based. On the set-up: expressed in transfected cells. Conditions: NanoBRET GSK3β IC50, HEK293 cells, tracer K-8, 2 hours, 37° C. In general terms: In BRET a luciferase serves as donor, and the signal depends on an acceptor being close.

The target of test [2] is T2, GSK3B. The experiment in a line: In vitro enzymatic activity assay, GSK3β. In kind it is biochemical. The arrangement: Full length human GSK3α or GSK3B expressed as N-terminal GST fusion proteins; GST (N); purchased Carna Biosciences (Japan); host or cells: baculovirus host. Conditions: 1.0 mM ATP, 1.0 μM peptide substrate, 120 min, 25° C, read-out: Enzyme GSK3β (IC50).

For another test, the target named is T3, GSK3A (Homo sapiens, UniProt P49840).
T3 construct: expressed in transfected cells
The experiment in a line: NanoBRET cellular target engagement assay, Nanoluc-GSK3A in HEK293 cells. In kind it is cell-based. Conditions: NanoBRET GSK3α IC50, HEK293 cells, tracer K-8, 2 hours, 37° C.

Structures are written as SMILES. pIC50: −log10 of the molar value. Counter-ions that a name gives are not always drawn.

T1 sequence (P49840 whole entry, the tested form may be a part): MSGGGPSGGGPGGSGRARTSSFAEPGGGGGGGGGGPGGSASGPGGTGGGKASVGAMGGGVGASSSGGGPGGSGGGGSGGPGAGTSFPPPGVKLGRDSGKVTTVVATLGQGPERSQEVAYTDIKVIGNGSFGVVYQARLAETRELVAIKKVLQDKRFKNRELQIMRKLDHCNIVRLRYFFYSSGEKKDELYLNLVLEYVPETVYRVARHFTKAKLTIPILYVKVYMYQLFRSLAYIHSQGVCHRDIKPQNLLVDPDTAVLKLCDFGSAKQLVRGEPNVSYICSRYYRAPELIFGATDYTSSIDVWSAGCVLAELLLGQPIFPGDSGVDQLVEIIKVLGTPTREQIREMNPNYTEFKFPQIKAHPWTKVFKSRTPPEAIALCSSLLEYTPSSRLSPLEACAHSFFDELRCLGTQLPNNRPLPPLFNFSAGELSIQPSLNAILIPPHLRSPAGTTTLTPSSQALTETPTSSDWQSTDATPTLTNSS
T3 sequence (P49840 whole entry): as the sequence (P49840 whole entry, the tested form may be a part) above
T2 sequence (P49841 whole entry): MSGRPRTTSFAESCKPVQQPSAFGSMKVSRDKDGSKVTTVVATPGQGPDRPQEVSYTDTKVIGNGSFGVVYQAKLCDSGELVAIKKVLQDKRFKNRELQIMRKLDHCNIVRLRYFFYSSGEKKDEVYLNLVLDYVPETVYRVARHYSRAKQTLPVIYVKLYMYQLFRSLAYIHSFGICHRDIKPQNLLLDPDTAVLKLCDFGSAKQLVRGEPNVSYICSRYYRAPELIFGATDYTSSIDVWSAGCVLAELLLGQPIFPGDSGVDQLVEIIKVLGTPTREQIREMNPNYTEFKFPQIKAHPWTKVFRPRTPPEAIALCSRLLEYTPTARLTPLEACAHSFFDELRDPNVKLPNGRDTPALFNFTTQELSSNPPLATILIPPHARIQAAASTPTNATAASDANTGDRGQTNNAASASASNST

Usually pIC50 stands for the negative decadic logarithm of the IC50, by convention in mol/L. Turning to `COc1cc(Cl)c(-n2cnc(N)c(C(=O)Nc3cncc([C@]4(N)CCCOC4)c3)c2=O)c(Cl)c1` (single isomer, unassigned) [Example 187, (R)-4-amino-N-(5-(3-aminotetrahydro-2H-pyran-3-yl)pyridin-3-yl)-1-(2,6-dichloro-4-methoxyphenyl)-6-oxo-1,6-dihydropyrimidine-5-carboxamide or (S)-4-amino-N-(5-(3-aminotetrahydro-2H-pyran-3-yl)pyridin-3-yl)-1-(2,6-dichloro-4-methoxyphenyl)-6-oxo-1,6-dihydropyrimidine-5-carboxamide], the pIC50 at human GSK3α is 8.08; on GSK3B [1], 6.38; on GSK3B [2], 6.45; against GSK3A, 8.25.
In the case of `COc1cc(Cl)c(-n2cnc(N)c(C(=O)Nc3cncc([C@]4(N)CCCOC4)c3)c2=O)c(Cl)c1` (single isomer, unassigned) [Example 188, R)-4-amino-N-(5-(3-aminotetrahydro-2H-pyran-3-yl)pyridin-3-yl)-1-(2,6-dichloro-4-methoxyphenyl)-6-oxo-1,6-dihydropyrimidine-5-carboxamide or (S)-4-amino-N-(5-(3-aminotetrahydro-2H-pyran-3-yl)pyridin-3-yl)-1-(2,6-dichloro-4-methoxyphenyl)-6-oxo-1,6-dihydropyrimidine-5-carboxamide], the negative-log IC50 (pIC50) on human GSK3α is 7.98; on GSK3B [1], 6.46; at GSK3B [2], 6.34; on GSK3A, 8.41.
The like results for `Nc1ncn(-c2c(Cl)cccc2Cl)c(=O)c1C(=O)Nc1cccc([C@@H]2CNC(=O)CN2)c1` (single isomer, unassigned) [Example 189, (R)-4-amino-1-(2,6-dichlorophenyl)-6-oxo-N-(3-(5-oxopiperazin-2-yl)phenyl)-1,6-dihydropyrimidine-5-carboxamide or (S)-4-amino-1-(2,6-dichlorophenyl)-6-oxo-N-(3-(5-oxopiperazin-2-yl)phenyl)-1,6-dihydropyrimidine-5-carboxamide] were, in that order, 6.88, 5.34, 5.66 and 7.16.
The like results for `Nc1ncn(-c2c(Cl)cccc2Cl)c(=O)c1C(=O)Nc1cccc([C@@H]2CNC(=O)CN2)c1` (single isomer, unassigned) [Example 190, (R)-4-amino-1-(2,6-dichlorophenyl)-6-oxo-N-(3-(5-oxopiperazin-2-yl)phenyl)-1,6-dihydropyrimidine-5-carboxamide or (S)-4-amino-1-(2,6-dichlorophenyl)-6-oxo-N-(3-(5-oxopiperazin-2-yl)phenyl)-1,6-dihydropyrimidine-5-carboxamide] were, in that order, 7.42, 5.48, 6.01 and 7.57.
For `Nc1ncn(-c2c(Cl)cccc2Cl)c(=O)c1C(=O)Nc1cccc([C@H]2CC[C@H](CO)N2)c1` (single isomer, unassigned) [Example 191, 4-amino-1-(2,6-dichlorophenyl)-N-(3-((2R,5R)-5-(hydroxymethyl)pyrrolidin-2-yl)phenyl)-6-oxo-1,6-dihydropyrimidine-5-carboxamide or 4-amino-1-(2,6-dichlorophenyl)-N-(3-((2S,5S)-5-(hydroxymethyl)pyrrolidin-2-yl)phenyl)-6-oxo-1,6-dihydropyrimidine-5-carboxamide], the pIC50 at human GSK3α was 8.24; against GSK3B [1] it was 6.52; on GSK3B [2], 6.64; against GSK3A, 8.33.
The like results for `CN[C@@H](C)c1cncc(NC(=O)c2c(N)ncn(-c3c(Cl)cc(OC4CC4)cc3Cl)c2=O)c1` (single isomer, unassigned) [Example 195, (S)-4-amino-1-(2,6-dichloro-4-cyclopropoxyphenyl)-N-(5-(1-(methylamino)ethyl)pyridin-3-yl)-6-oxo-1,6-dihydropyrimidine-5-carboxamide or (R)-4-amino-1-(2,6-dichloro-4-cyclopropoxyphenyl)-N-(5-(1-(methylamino)ethyl)pyridin-3-yl)-6-oxo-1,6-dihydropyrimidine-5-carboxamide] were, in that order, 7.96, 6.33, 6.20 and 8.27.
The like results for `COCC[C@@H](N)c1cncc(NC(=O)c2c(N)ncn(-c3c(Cl)cccc3Cl)c2=O)c1` (single isomer, unassigned) [Example 197, (R)-4-amino-N-(5-(1-amino-3-methoxypropyl)pyridin-3-yl)-1-(2,6-dichlorophenyl)-6-oxo-1,6-dihydropyrimidine-5-carboxamide or (S)-4-amino-N-(5-(1-amino-3-methoxypropyl)pyridin-3-yl)-1-(2,6-dichlorophenyl)-6-oxo-1,6-dihydropyrimidine-5-carboxamide] were, in that order, 7.82, 6.40, 6.07 and 8.14.
The like results for `COc1cc(Cl)c(-n2cnc(N)c(C(=O)Nc3cncc([C@@H](N)C(F)F)c3)c2=O)c(Cl)c1` (single isomer, unassigned) [Example 204, (R)-4-amino-N-(5-(1-amino-2,2-difluoroethyl)pyridin-3-yl)-1-(2,6-dichloro-4-methoxyphenyl)-6-oxo-1,6-dihydropyrimidine-5-carboxamide or (S)-4-amino-N-(5-(1-amino-2,2-difluoroethyl)pyridin-3-yl)-1-(2,6-dichloro-4-methoxyphenyl)-6-oxo-1,6-dihydropyrimidine-5-carboxamide] were, in that order, 7.87, 6.11, 6.15 and 8.06.
In the case of `COc1cc(C)c(-n2cnc(N)c(C(=O)N[C@@H]3CCC[C@H](CN)C3)c2=O)c(Cl)c1` (single isomer, unassigned) [Example 206, 4-amino-N-((1R,3S)-3-(aminomethyl)cyclohexyl)-1-((S)-2-chloro-4-methoxy-6-methylphenyl)-6-oxo-1,6-dihydropyrimidine-5-carboxamide or 4-amino-N-((1S,3R)-3-(aminomethyl)cyclohexyl)-1-((S)-2-chloro-4-methoxy-6-methylphenyl)-6-oxo-1,6-dihydropyrimidine-5-carboxamide], the pIC50 on human GSK3α was 8.03; against GSK3B [1], 6.86; at GSK3B [2], 6.59; at GSK3A, 8.51.
As for `Nc1ncn(-c2c(Cl)cccc2Cl)c(=O)c1C(=O)Nc1cccc([C@@H]2COCCCN2)c1` (single isomer, unassigned) [Example 211, (R)—N-(3-(1,4-oxazepan-3-yl)phenyl)-4-amino-1-(2,6-dichlorophenyl)-6-oxo-1,6-dihydropyrimidine-5-carboxamide or (S)—N-(3-(1,4-oxazepan-3-yl)phenyl)-4-amino-1-(2,6-dichlorophenyl)-6-oxo-1,6-dihydropyrimidine-5-carboxamide], the pIC50 is 7.80 on human GSK3α, 6.10 at GSK3B [1], 6.05 on GSK3B [2] and 8.07 on GSK3A.
With `COc1cc(Cl)c(-n2cnc(N)c(C(=O)Nc3cncc(C4COCCN4)c3)c2=O)c(Cl)c1` (single isomer, unassigned) [Example 212, (S)-4-amino-1-(2,6-dichloro-4-methoxyphenyl)-N-(5-(morpholin-3-yl)pyridin-3-yl)-6-oxo-1,6-dihydropyrimidine-5-carboxamide or (R)-4-amino-1-(2,6-dichloro-4-methoxyphenyl)-N-(5-(morpholin-3-yl)pyridin-3-yl)-6-oxo-1,6-dihydropyrimidine-5-carboxamide], the pIC50 was 8.33 at human GSK3α, 6.28 at GSK3B [1], 6.57 at GSK3B [2] and 8.12 on GSK3A.
`COc1cc(Cl)c(-n2cnc(N)c(C(=O)Nc3cncc([C@@H]4CCN4)c3)c2=O)c(Cl)c1` (single isomer, unassigned) [Example 213, (S)-4-amino-N-(5-(azetidin-2-yl)pyridin-3-yl)-1-(2,6-dichloro-4-methoxyphenyl)-6-oxo-1,6-dihydropyrimidine-5-carboxamide or (R)-4-amino-N-(5-(azetidin-2-yl)pyridin-3-yl)-1-(2,6-dichloro-4-methoxyphenyl)-6-oxo-1,6-dihydropyrimidine-5-carboxamide]: the pIC50 is 7.48 on human GSK3α, 6.00 at GSK3B [1], 5.75 at GSK3B [2] and 8.11 on GSK3A.
Regarding `COc1cc(Cl)c(-n2cnc(N)c(C(=O)Nc3cncc([C@@H]4C[C@@H](C)N4)c3)c2=O)c(Cl)c1` (single isomer, unassigned) [Example 214, 4-amino-1-(2,6-dichloro-4-methoxyphenyl)-N-(5-((2S,4R)-4-methylazetidin-2-yl)pyridin-3-yl)-6-oxo-1,6-dihydropyrimidine-5-carboxamide formate or 4-amino-1-(2,6-dichloro-4-methoxyphenyl)-N-(5-((2R,4S)-4-methylazetidin-2-yl)pyridin-3-yl)-6-oxo-1,6-dihydropyrimidine-5-carboxamide formate], the pIC50 is 7.76 at human GSK3α, 6.19 on GSK3B [1], 6.03 at GSK3B [2] and 8.05 against GSK3A.

The values above are taken from US20260327191A1, “GSK3a INHIBITORS AND METHODS OF USE THEREOF” (Blueprint Medicines Corporation, priority 2023, published 2026).
